According to patent publication US20240124528A1, “ANTAGONIST OF INTERLEUKIN-17B RECEPTOR (IL-17RB) AND USE THEREOF” (Academia Sinica, priority 2020, published 2024):

Assays:
[1] = test system: pancreatic cancer cells expressing IL-17RB; experiment: Soft agar colony formation (SACF) assay after peptide treatment; format: cell-based, human; conditions: CFPAC1 and PDX-derived cells treated with peptide
Source text: (§1) FIGS. 7A to 7J include charts showing that disruption of the interaction between IL-17RB and MLK4 by the loop peptide blocks oncogenic progression. (FIG. 7A) Peptides TAT48-57 (Control) (SEQ ID NO: 21) and TAT-IL-17RB403-416 (Loop) (SEQ ID NO: 30) used for the following experiments. (FIG. 7B) Immunoblotting analysis of IL-17RB binding to MLK4 with Loop peptide treatment. 293T cells expressing Flag-MLK4 and HA-IL-17RB were pretreated with the control and loop peptides with different dose (0, 0.1, 1, 10, 50, 100 ng/ml) for 30 mins, and then added rIL-17B for 30 mins. […] CCL20 and TFF/mRNA expression of these cells were measured by RT-qPCR (n=3) (FIG. 7D), the same cells were for invasion assay (n=4) (FIG. 7E) and SACF assay (n=4) (FIG. 7F). […] (FIG. 7I) The experimental EKP mice (n=7 for each group) were euthanized at Day 56, and the metastatic tumor nodules in the lungs were counted. […]
(§2) FIGS. 19A to 19D include charts showing that treatment with the loop peptide suppresses aggressive behavior of patient-derived pancreatic tumor cells. […] (FIG. 19C and FIG. 19D) These cells were measured by RT-qPCR for the cytokine gene mRNA expression (n=3), or for Invasion assay (n=4) (FIG. 19C) and SACF assay (n=4) (FIG. 19D). […]
Soft agar colony formation assay was performed as described (7). […] Crystal violet-stained colonies greater than 50 μm in size were counted and analyzed objectively by light microscopy.

[2] = test system: pancreatic cancer cells expressing IL-17RB; experiment: RT-qPCR of cytokine gene expression (CCL20, TFF1) after peptide pretreatment and rIL-17B; format: cell-based, human; conditions: CFPAC1 and PDX-derived cells; peptide 50 ng/ml 30 mins, then rIL-17B 2 hrs
Source text: as §1, §2

RKKRRQRRRVCDGTCGKSEGSPS (IL-17RB inhibitory peptide, fusion protein) [loop peptide]
colony formation ability (SACF) [1]: diminished
cytokine gene expression (CCL20, TFF1 mRNA) [2]: diminished
